Laboratory results reported in US9090651B2, “Helix 12 directed pharmaceutical products” (ENDORECHERCHE, INC., priority 2004, dated 2015).
Values joined by “and” are separate entries in the source; they are usually repeats but may differ in a detail not shown here. Identical values can stand only once. Like-named read-outs stand apart in the source and are kept apart here.

What was measured:
[1] = test system: Shionogi mouse mammary carcinoma cells; assay: Androgenic/antiandrogenic activity on DHT-stimulated Shionogi cell growth; assay type: cell-based; conditions: for IC50: Mus musculus; for Shionogi VS OH-FLU: Table 4, ratio of Ki hydroxyflutamide versus tested compound
[2] = molecular target: T1, Human Androgen Receptor (Homo sapiens, UniProt P10275); assay: Androgen receptor binding assay (hydroxylapatite, [3H]R1881, cytosol of transfected HEK-293 cells); conditions: for Androgen Receptor Binding (%) Human RBA R1881 = 100: % RBA=100×IC50 R1881/IC50 compound, transfected cells; for RBA human: Table 4, relative to R1881
T1 sequence (P10275 1-920): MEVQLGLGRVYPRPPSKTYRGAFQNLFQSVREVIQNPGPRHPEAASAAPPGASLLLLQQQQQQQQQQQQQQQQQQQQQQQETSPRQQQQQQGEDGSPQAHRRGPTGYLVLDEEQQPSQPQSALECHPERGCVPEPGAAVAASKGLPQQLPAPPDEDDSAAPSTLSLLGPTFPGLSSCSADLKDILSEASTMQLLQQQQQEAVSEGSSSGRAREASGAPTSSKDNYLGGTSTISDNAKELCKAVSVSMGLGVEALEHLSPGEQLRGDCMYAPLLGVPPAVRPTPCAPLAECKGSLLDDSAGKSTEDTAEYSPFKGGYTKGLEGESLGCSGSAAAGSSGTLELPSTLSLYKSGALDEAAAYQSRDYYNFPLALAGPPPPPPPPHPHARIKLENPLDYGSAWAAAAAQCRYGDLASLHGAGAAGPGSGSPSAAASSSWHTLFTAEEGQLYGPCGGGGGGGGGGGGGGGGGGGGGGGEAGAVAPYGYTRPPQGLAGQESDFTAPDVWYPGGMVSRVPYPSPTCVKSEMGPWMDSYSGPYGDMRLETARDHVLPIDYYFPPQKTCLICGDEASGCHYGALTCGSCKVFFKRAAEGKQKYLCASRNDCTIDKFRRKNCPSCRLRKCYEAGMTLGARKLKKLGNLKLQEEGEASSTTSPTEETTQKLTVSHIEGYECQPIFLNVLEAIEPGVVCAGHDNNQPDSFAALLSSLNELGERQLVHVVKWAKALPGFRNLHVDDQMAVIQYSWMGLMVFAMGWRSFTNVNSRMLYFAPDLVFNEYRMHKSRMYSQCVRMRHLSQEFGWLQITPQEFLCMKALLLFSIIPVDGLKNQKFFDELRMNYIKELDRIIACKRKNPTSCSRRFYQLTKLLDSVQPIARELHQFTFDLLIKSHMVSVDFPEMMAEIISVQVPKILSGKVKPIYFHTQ

[3] = test system: rat prostate; assay: Systemic antiandrogenic activity, orchidectomized immature male rats with DHT implant: prostate weight; assay type: in vivo; conditions: for inhibition in vivo at 0.5 mg: Rattus norvegicus, 168 h
Protocol: (§1) Immature male rats (Crl:CD(SD)Br) 22 to 24-day old were obtained from Charles-River, Inc. (St-Constant, Quebec, Canada) and housed up to 5 per cage in plastic bins in a temperature (23±1° C.)- and light (12 h light/day, lights on at 7 h15)-controlled environment. The rats were fed rodent chow and tap water ad libitum. The day following their arrival, the animals were orchidectomized (CX) under Isoflurane anesthesia via scrotal route and randomly assigned to groups of 5 animals.
(§2) Compounds were solubilized (when possible) in dimethylsulfoxide (DMSO, 10% final concentration) and administered as suspension in 0.4% methylcellulose. […] One group of animals received the antiandrogen Flutamide as reference. The animals were killed by cervical dislocation under isoflurane anesthesia on the 8th morning following castration. The ventral prostate and seminal vesicles were rapidly dissected and weighed.
(§3) W is the weight of the prostate or the seminal vesicle.

[4] = test system: rat seminal vesicle; assay: Systemic antiandrogenic activity, orchidectomized immature male rats with DHT implant: seminal vesicle weight; assay type: in vivo; conditions: for inhibition in vivo at 0.5 mg: Rattus norvegicus, 168 h
Protocol: as §1, §2, §3

[5] = test system: sebaceous glands of the left ear; assay: Topical antiandrogenic activity, ear sebaceous glands model in the male hamster; assay type: in vivo; conditions: Mesocricetus auratus, 336 h, topical on left pinna, read-out: Antiandrogenic activity in Hamster Ear Area Inh Vs Cx (%); for inhibition in vivo at 0.01 mg: 10 μg daily for 14 days; for inhibition in vivo at 0.1 mg: 100 μg daily for 14 days
Protocol: The antiandrogenic activity of compounds for topical use was determined using the ear sebaceous glands model in the male hamster.
Male Golden Syrian Hamsters (SYR) of 110-120 g were obtained from Harlan Sprague-Dawley (Madison, USA) and housed up to 2 per plastic cage in a temperature (22±3° C.) and light (12 h light/day, lights on at 7 h15)-controlled environment. The hamsters were fed with Certified Rodent Diet 5002 (pellet) and had access to tap water ad libitum. The animals were acclimatized for at least five days prior to beginning the study. Animals were randomly assigned to groups of eight hamsters. One group of hamsters were castrated under isoflurane-induced anesthesia on the day of dosing initiation (SD 1) and used as control group.
To evaluate the antiandrogenic activity, the tested compounds were applied topically on the inner part of the left ear, once daily, for 14 days. […] For animals of the castrated and intact control groups, one ten-μL vehicle was applied onto the left ear. No solution was applied on the right ear.
On Study Day 15, the hamsters were euthanized by cervical dislocation under isoflurane anesthesia. The left and right ears were collected attached together by the head skin, flat fixed on a paper and then immersed in 10% neutral buffered formalin. Punctures making a circular hole of 6 mm were made on the flat fixed ear in the region where the solution has been applied. These punch-made specimens were collected from each ear. Using a scalpel blade, the collected 6 mm round ear specimens were cut in the middle between the two cartilage ridges. The two equal parts of the ear round specimens were embedded in paraffin. After processing the tissue, the two parts were vertically embedded parallel to each other in such a way that the flat 6 mm area was facing out. From each paraffin block, one section (5 μm thick) was cut and collected on a glass slide. Thus, each slide contained two elongated sections of 6 mm length. Slides were stained with hematoxylin and eosin.
Using the video camera and the lens number X5 of the light microscope, the resulting field appearing on the screen has a length of 0.953 mm. When the first 6 mm long section was examined from the left to the right, the first and second fields were ignored and the third and fourth fields were captured for analysis by the image analyzer. Each field has the length of 0.953 mm. With the help of the screen mouse, the sebaceous glands within the whole field length (0.953 mm) were marked. Also, an area having the length of the whole field and the height between stratum granulosum and the upper edge of the cartilage was drawn.
The total area of the sebaceous glands (μm^2) in each examined field was calculated by the Image Analyser. We also measured the total area, which has the length of 0.953 mm and the height between stratum granulosum and the cartilage. In addition, the percentage of the area occupied by the glands was obtained. Thus, for each ear, two sections were cut and two fields from each section were analyzed. The total of the four readings was averaged and the mean standard error of the mean was calculated by the image analyzer. The results were expressed in μm^2 as the total surface of glands per field and also as percentage of the area occupied by the glands in the tissue.

[6] = read-out: Shionogi Antiandrogenic activity IC50 (nM), inhibition of DHT-stimulated Shionogi cell number
[7] = read-out: Shionogi IC50 (nM), Table 4, inhibition of DHT-stimulated Shionogi cell number
[8] = po, 0.5 mg, per os, read-out: Prostate Rat Inh % inh (0.5 mg, per os)
[9] = po, 0.5 mg, per os, read-out: SV RAT Inh % inh (0.5 mg, per os)

SMILES: CCN(C1CCCCC1)[C@H](C)c1cccc(OCC[C@]23CCC4C(CCC5CC(=O)CC[C@@]54C)C2CC[C@@H]3O)c1 (stereo partly drawn) [EM-6414]
- IC50 [1, 6]: 4 nM
- IC50 [1, 7]: 4 nM
- Shionogi VS OH-FLU [1]: 1
- Androgen Receptor Binding (%) Human RBA R1881 = 100 [2]: 121%
- RBA human [2]: 71%
- inhibition in vivo at 0.5 mg [3, 8]: 6%
- inhibition in vivo at 0.5 mg [4, 9]: 28%
- inhibition in vivo at 0.01 mg [5]: 55%
- inhibition in vivo at 0.1 mg [5]: 64%

SMILES: CC[C@H](NC1CCCCC1)c1cccc(OCC[C@]23CCC4C(CCC5CC(=O)CC[C@@]54C)C2CC[C@@H]3O)c1 (stereo partly drawn) [EM-6415]
- IC50 [1, 6]: 0.47 nM
- IC50 [1, 7]: 1.4 nM
- Shionogi VS OH-FLU [1]: 29
- Androgen Receptor Binding (%) Human RBA R1881 = 100 [2]: 230%
- RBA human [2]: 185%
- inhibition in vivo at 0.5 mg [3, 8]: 14%
- inhibition in vivo at 0.5 mg [4, 9]: 0%
- inhibition in vivo at 0.01 mg [5]: 52%
- inhibition in vivo at 0.1 mg [5]: 84%

SMILES: CCC(CC)NC(c1cccc(OCC[C@]23CCC4C(CCC5CC(=O)CC[C@@]54C)C2CC[C@@H]3O)c1)C(C)C (stereo partly drawn) [EM-6446]
- IC50 [1, 7]: 1 nM
- Shionogi VS OH-FLU [1]: 51
- RBA human [2]: 715%
- inhibition in vivo at 0.5 mg [3, 8]: 11%
- inhibition in vivo at 0.5 mg [4, 9]: 3%
- inhibition in vivo at 0.01 mg [5]: 56%
- inhibition in vivo at 0.1 mg [5]: 79%

SMILES: CC(C)CN1CCCCC1c1cccc(OCC[C@]23CCC4C(CCC5CC(=O)CC[C@@]54C)C2CC[C@@H]3O)c1 (stereo partly drawn) [EM-6493]
- IC50 [1, 6]: 4.3 nM
- IC50 [1, 7]: 3.6 nM
- Shionogi VS OH-FLU [1]: 16
- Androgen Receptor Binding (%) Human RBA R1881 = 100 [2]: 92% and 173%
- RBA human [2]: 173%
- inhibition in vivo at 0.5 mg [3, 8]: 15%
- inhibition in vivo at 0.5 mg [4, 9]: 19%
- inhibition in vivo at 0.01 mg [5]: 44%
- inhibition in vivo at 0.1 mg [5]: 63%

SMILES: CCCCCN1CCCCC1c1cccc(OCC[C@]23CCC4C(CCC5CC(=O)CC[C@@]54C)C2CC[C@@H]3O)c1 (stereo partly drawn) [EM-6494]
- IC50 [1, 6]: 10.5 nM
- IC50 [1, 7]: 10.5 nM
- Shionogi VS OH-FLU [1]: 5.4
- Androgen Receptor Binding (%) Human RBA R1881 = 100 [2]: 63% and 97%
- RBA human [2]: 97%
- inhibition in vivo at 0.5 mg [3, 8]: 0%
- inhibition in vivo at 0.5 mg [4, 9]: 1%
- inhibition in vivo at 0.1 mg [5]: 68%

SMILES: CC(C)CNC(C)(C)c1cccc(OCC[C@]23CCC4C(CCC5CC(=O)CC[C@@]54C)C2CC[C@@H]3O)c1 (stereo partly drawn) [EM-6534]
- IC50 [1, 6]: 0.4 nM
- IC50 [1, 7]: 0.23 nM
- Shionogi VS OH-FLU [1]: 267
- Androgen Receptor Binding (%) Human RBA R1881 = 100 [2]: 112%
- RBA human [2]: 112%
- inhibition in vivo at 0.5 mg [3, 8]: 9%
- inhibition in vivo at 0.5 mg [4, 9]: 16%
- inhibition in vivo at 0.01 mg [5]: 48%
- inhibition in vivo at 0.1 mg [5]: 84%

SMILES: COC1CCC2C3CCC4CC(=O)CC[C@]4(C)C3CC[C@]12CCOc1cccc(C(C)(C)NCC(C)C)c1 (stereo partly drawn) [EM-6628]
- IC50 [1, 7]: 5.9 nM
- Shionogi VS OH-FLU [1]: 14
- RBA human [2]: 796%
- inhibition in vivo at 0.5 mg [3, 8]: 15%
- inhibition in vivo at 0.5 mg [4, 9]: 0%
- inhibition in vivo at 0.01 mg [5]: 58.1%

SMILES: CCC(NC1CCCC1)c1cccc(OCC[C@]23CCC4C(CCC5CC(=O)CC[C@@]54C)C2CC[C@@H]3OC)c1 (stereo partly drawn) [EM-6640]
- IC50 [1, 7]: 18 nM
- Shionogi VS OH-FLU [1]: 5.3
- RBA human [2]: 438%
- inhibition in vivo at 0.5 mg [3, 8]: 10%
- inhibition in vivo at 0.5 mg [4, 9]: 0%
- inhibition in vivo at 0.01 mg [5]: 46.3%

SMILES: CCC(CC)N(C)C(CC)c1cccc(OCC[C@]23CCC4C5CCC(=O)C=C5CCC4C2CC[C@@H]3O)c1 (stereo partly drawn) [EM-6680]
- IC50 [1, 6]: 1.2 nM
- Androgen Receptor Binding (%) Human RBA R1881 = 100 [2]: 140%
- RBA human [2]: 140%
- inhibition in vivo at 0.5 mg [3, 8]: 0%
- inhibition in vivo at 0.5 mg ([3]; sc, read-out: IN VIVO Rat s.c. (+DHT) Prostate % inhibition, s.c., 0.5 mg/animal once daily for 7 days, +DHT): 0%
- IN VIVO Rat (+DHT) Prostate % inhibition (per os) ([3]; per os, +DHT): 0 (p.o.) %
- Prostate Rat Inh % inh, s.c. ([3]; s.c.): 0 s.c. 0%
- inhibition in vivo at 0.5 mg [4, 9]: 21%
- inhibition in vivo at 0.5 mg ([4]; sc, read-out: IN VIVO Rat s.c. (+DHT) SV % inhibition, s.c., 0.5 mg/animal once daily for 7 days, +DHT): 40%
- IN VIVO Rat (+DHT) SV % inhibition (per os) ([4]; per os, +DHT): 21%
- SV RAT Inh % inh, s.c. ([4]; s.c.): 40%
- inhibition in vivo at 0.01 mg [5]: 64.7%

SMILES: CCCC(NC(CC)CC)c1cccc(OCC[C@]23CCC4C(CCC5CC(=O)CC[C@@]54C)C2CCC3=O)c1 (stereo partly drawn) [EM-6842]
- IC50 [1, 7]: 0.4 nM
- Shionogi VS OH-FLU [1]: 183
- RBA human [2]: 451%
- inhibition in vivo at 0.5 mg [3, 8]: 18%
- inhibition in vivo at 0.5 mg [4, 9]: 27%
- inhibition in vivo at 0.01 mg [5]: 63.8%
